Test results: patent US7626082B2, “Flowering induction” (Agriculture Victoria Services Pty Ltd., priority 2003, dated 2009)

Tests used:
Type in all cases: in vivo
FT gene = FT gene induction levels in sprayed transgenic arabidopsis plants (real-time RT-PCR); details: for fold gene induction: short day conditions
Method: Total RNA was converted to cDNA using standard protocols using 1-5 ug of RNA as measured by OD260.
Quantitative RT-PCR was performed in the BioRad iCycler instrument using standard protocols and SyberGreen as reporting dye
Actin gene levels were assayed using oligonucleotides GTF037 (Seq ID. No. 28) 5′[…]3′ and GTF038 (Seq ID No. 29) 5′[…]3′, and served as standards to normalize measurements of other genes.
To create a copy number calibration curve for individual genes, standards were made up from corresponding PCR products, measuring their concentration using gel serial dilution methods and spectrophotometry. Standard copy numbers were varied from 1 to 10^8 with 10× increments.
Amplifications were performed in triplicates, error rates were estimated by adding the average variance between triplicate samples, and average error of the standard curve fit of the standards of both the gene of interest and of the actin standard.
We have also measured the FT gene induction levels in the sprayed transgenic arabidopsis plants compared with the non-sprayed or non-transgenic controls in plants grown in short day conditions, the results are summarized in the table below:
The methodology we used to measure the gene induction levels was essentially the same as described elsewhere in the patent, except that we used the arabidopsis gene-specific primers NIK13 5′[…]3′ (SEQ ID NO: 34) and NIK14 5′[…]3′ (SEQ ID NO: 35).

[1] = tested on: Arabidopsis plants containing the pHTOP::FT inducible construct; experiment: Time to flowering of arabidopsis plants sprayed with DEX inducer; parameters: time to flowering: unit not given here
[2] = tested on: transgenic arabidopsis plants carrying both the pHTOP-FT construct and the LhG4-GR construct; experiment: Transgenic arabidopsis grown in the presence of DEX: flowering and GUS staining
Method: (A) A plant grown on a 30 μM MS-DEX plate; (B) No DEX control; (C) and (D) GUS staining of leaves from induced plants; (E) GUS staining of a leaf from a non-induced LhGr/pHtop-FT plant; GUS staining of a leaf from a Col wild type plant.
The arabidopsis FT cDNA was inserted into the pHTOP vector system to facilitate inducible expression of the gene using heterologous transcription factor system LhG4^19,27.
This inducible system allows for simultaneous expression of two genes from the same reporter construct. In the experiment described here the GUS gene was used as a second gene in addition to FT.

C[C@@H]1C[C@H]2[C@@H]3CCC4=CC(=O)C=C[C@]4(C)[C@@]3(F)[C@@H](O)C[C@]2(C)[C@@]1(O)C(=O)CO [DEX, dexmethasone]
induction in the cDNA level as assayed in real-time RT-PCR (FT gene; 1 mM spray of inducer): lesser induction
fold gene induction (FT gene; LhG4-mGR driver plants, sprayed twice 30 μM): 1x
fold gene induction (FT gene; pHTOP::FT plants, sprayed twice 30 nM): 1x
fold gene induction (FT gene; pHTOP::FT plants, sprayed twice 1 μM): 20x
fold gene induction (FT gene; pHTOP::FT plants, sprayed twice 30 μM): 120x
induction in the cDNA level as assayed in real-time RT-PCR (FT gene; plants 3 days after treatment with high level of the DEX inducer): > 100 fold
fold gene induction (FT gene; wild type plants, sprayed twice 30 μM): 1x
time to flowering ([1]; LhG4-mGR driver, line S7, sprayed twice 30 μM, unit not in table (b146 speaks of days)): 20
emergence of inflorescences ([1]; pHTOP::FT plants sprayed with 30 mM DEX, 6 days after spraying (FIG. 12)): inflorescences have emerged
time to flowering ([1]; pHTOP::FT, line COF3-12, sprayed twice 30 nM): 20
time to flowering ([1]; pHTOP::FT, line COF3-12, sprayed twice 1 μM): 20
time to flowering ([1]; pHTOP::FT, line COF3-12, sprayed twice 30 μM): 16.5
time to flowering ([1]; pHTOP::FT, line COF7-30, sprayed twice 30 nM): 20
time to flowering ([1]; pHTOP::FT, line COF7-30, sprayed twice 1 μM): 19
time to flowering ([1]; pHTOP::FT, line COF7-30, sprayed twice 30 μM): 14.86
reduction of time to flowering ([1]; spraying with 30 mM inducer, compared to non-transgenic or non-sprayed plants): up to 6 days
time to flowering ([1]; wild type, line Col, sprayed twice 30 μM): 20
flowering ([2]; pHTOP-FT + LhG4-GR plants grown in the presence of DEX (30 μM MS-DEX plate, FIG. 5)): accelerated flowering
GUS staining (reporter gene activity) ([2]; pHTOP-FT + LhG4-GR plants grown in the presence of DEX (FIG. 5)): GUS staining
